{"source": "patent US9163032B2", "about": "“Esters of DCPLA and methods of treatment using the same” (Blanchette Rockefeller Neurosciences Institute, priority 2011, dated 2015)", "key": {"[1]": {"tested_on": "differentiated human SH-SY5Y cells", "assay": "Neuroprotection against ASPD, MTT assay, differentiated SH-SY5Y cells", "assay_type": "cell-based", "conditions": "ASPD alone, compared to untreated cells", "method": "For differentiation, SH-SY5Y cells were maintained in medium containing 2% serum and treated with 10 μM all-trans-retinoic acid (RA) for 72 hr. Thereafter, the cells were treated with 0.27 nM Bryostatin 1 for 72 hrs. The medium was changed every 3 days with fresh supplementation of RA.\nViability of cells was measured by MTT assay. MTT (i.e., 3-(4,5-dimethylthiazol-2-yl)-2,5-diphenyltetrazolium bromide) is a tetrazolium salt that is cleaved to formazan by the succinate dehydrogenase, which is only active in viable cells. After solubilization of the formazan, the amount of dye can be quantified with a microplate reader at 570 nm along with a reference of 630 nm. For the MTT assay, 5×10^4 primary rat hippocampal neurons from 18-day-old embryonic Sprague-Dawley rat brains or SH-SY5Y cells were plated on each well of 24-well plates coated with poly-D-lysine. After treatment, the cells were washed with 1× PBS and were incubated with 200 μl of 1 mg/ml MTT solution (Sigma, USA) at 37° C. for 2 hr. Then the MTT-solution was removed and the cells were lysed with 200 μl isopropanol containing 0.04 M HCl and […] for 10 min. Finally, the reading was taken at 570 nm and 630 nm. All the samples were done in triplicate and the data were represented as the percentage of control.\nIn ASPD-treated cells, the viability was 77.15±0.49% (p<0.0001, n=6) compared to the untreated cells."}, "[2]": {"tested_on": "Wistar rats", "assay": "Water maze spatial learning and memory task", "assay_type": "in vivo, rat", "conditions": "for water maze learning performance (escape latency) vs control: 8 doses, rats", "method": "Water maze spatial learning and memory task (2 training trials/day for 4 days) was used to evaluate effects of oral DCPLA-ME on learning and memory in rats. A visible platform test was conducted after the end of the experiments to evaluate whether the treatment might result in an altered sensorimotor activity and escape motivation.\nMale adult Wistar rats (200-250 g) were housed in a temperature-controlled (20-24° C.) room for a week, allowed free access to food and water, and kept on a 12-h light/dark cycle. Rats were anesthetized with sodium pentobarbital (60 mg/kg i.p) and placed in a stereotactic apparatus (Kopf Instruments, Tujunga, Calif.). The core temperature of rats was monitored and kept constant (38.0±0.5° C.) with warming light and pad. Two stainless steel guide cannulas were placed with the tips positioned at the coordinates (anterior-posterior, 0.5 mm; lateral, 1.5 mm; horizontal, 3.2 mm), under aseptic conditions. At the end of surgery and under appropriate anesthesia, rats received (s.c.) banamine (1 mg/kg) and ketoprofen (5 mg/kg) in lactate/Ringer's solution. A 7-day recovery period was allowed before any further experimentation.\nOn the first day of experiments, all rats were randomly assigned to different groups and swam for 2 min in a 1.5-(diameter)×0.6-m (depth) pool (22±1° C.). On the following day, rats were trained in a two-trial per day task for four consecutive days. Each training trial lasted for up to 2 min, during which rats learned to escape from water by finding a hidden platform that was placed at a fixed location and submerged 1 cm below the water surface. The navigation of the rats was tracked by a video camera. The escape latency and the route of rats' swimming across the pool to the platform were recorded. The quadrant test (1 min) was performed after removing the platform, 24 hr after the last training trial. […]\nData were analyzed using a target quadrant ratio (dividing the target quadrant distance by the average of the non-target quadrant values during the probe test; FIG. 14D)."}, "[3]": {"tested_on": "Phosphatidylserine (C2) Binding Site", "assay": "3H-DCPLA-ME binding to rat brain slices with C1 and C2 competitors (film-autoradiography)", "method": "To determine the binding site of DCPLA-ME, ^3H-DCPLA-ME was incubated with rat brain slices in the absence and presence of known C1 and C2 competitors. More specifically, rat brain sections were fixed with formaldehyde, sliced, and incubated with (1)^3H-DCPLA-ME alone; (2)^3H-DCPLA-ME with DCPLA; (3)^3H-DCPLA-ME with Phorbol ester; or (4)^3H-DCPLA-ME and Bryostatin 1. After incubation, the slices were washed with a buffer made of 130 mM NaCl, 5 mM MgCl, 5 mM KCl, 1 mM EGTA, and 0.1% bovine serum albumin in 10 mM HEPES-NaOH, pH 7.4, dried, and analyzed with film-autoradiography."}}, "data": [{"compound": "ASPD: Amylospheroids from Aβ1-42, 100 kDa filter retentate, containing 39 monomers on average", "values": [{"measurement": "viability of SH-SY5Y cells", "setting": "[1]", "value": "77.15±0.49", "unit": "%"}]}, {"compound": "CCCCCC1CC1CC1CC1CCCCCCCC(=O)OC", "note": "(stereo not shown) [DCPLA-ME, DCPLA methyl ester]", "values": [{"measurement": "water maze learning performance (escape latency) vs control", "setting": "[2]; 5.3 mg/kg intragastric", "value": "did not reach a significant level"}, {"measurement": "water maze learning performance (escape latency) vs control", "setting": "[2]; 16.0 mg/kg intragastric", "value": "improved learning performance"}, {"measurement": "memory retention, target quadrant ratio vs control", "setting": "[2]; 16.0 mg/kg intragastric, probe test 24 hr after last trial", "value": "significant difference"}, {"measurement": "binding site", "setting": "[3]", "value": "phosphatidylserine (C2) site"}, {"measurement": "3H-DCPLA-ME binding, 30 nM competitor", "setting": "[3]; 30 nM competitor, rat brain slices", "value": 64, "unit": "%"}, {"measurement": "3H-DCPLA-ME binding, 1 μM competitor", "setting": "[3]; 1 μM competitor, rat brain slices", "value": 37, "unit": "%"}]}]}
